Source: patent US20230373974A1, “MODULATORS OF CYSTIC FIBROSIS TRANSMEMBRANE CONDUCTANCE REGULATOR” (VERTEX PHARMACEUTICALS INCORPORATED, priority 2020, published 2023)

How the values were obtained:
[1] = biological target: CFTR-mediated chloride transport in human intestinal epithelial enteroid cells (Homo sapiens, UniProt P13569); assay: Enteroid assay: membrane potential dye assay (Enteroid Assay A or B); assay type: cell-based; conditions: for Ent. Max Activity (%): chloride transport as percentage of triple combination control (% Activity)
CFTR-mediated chloride transport in human intestinal epithelial enteroid cells, sequence (P13569 whole entry): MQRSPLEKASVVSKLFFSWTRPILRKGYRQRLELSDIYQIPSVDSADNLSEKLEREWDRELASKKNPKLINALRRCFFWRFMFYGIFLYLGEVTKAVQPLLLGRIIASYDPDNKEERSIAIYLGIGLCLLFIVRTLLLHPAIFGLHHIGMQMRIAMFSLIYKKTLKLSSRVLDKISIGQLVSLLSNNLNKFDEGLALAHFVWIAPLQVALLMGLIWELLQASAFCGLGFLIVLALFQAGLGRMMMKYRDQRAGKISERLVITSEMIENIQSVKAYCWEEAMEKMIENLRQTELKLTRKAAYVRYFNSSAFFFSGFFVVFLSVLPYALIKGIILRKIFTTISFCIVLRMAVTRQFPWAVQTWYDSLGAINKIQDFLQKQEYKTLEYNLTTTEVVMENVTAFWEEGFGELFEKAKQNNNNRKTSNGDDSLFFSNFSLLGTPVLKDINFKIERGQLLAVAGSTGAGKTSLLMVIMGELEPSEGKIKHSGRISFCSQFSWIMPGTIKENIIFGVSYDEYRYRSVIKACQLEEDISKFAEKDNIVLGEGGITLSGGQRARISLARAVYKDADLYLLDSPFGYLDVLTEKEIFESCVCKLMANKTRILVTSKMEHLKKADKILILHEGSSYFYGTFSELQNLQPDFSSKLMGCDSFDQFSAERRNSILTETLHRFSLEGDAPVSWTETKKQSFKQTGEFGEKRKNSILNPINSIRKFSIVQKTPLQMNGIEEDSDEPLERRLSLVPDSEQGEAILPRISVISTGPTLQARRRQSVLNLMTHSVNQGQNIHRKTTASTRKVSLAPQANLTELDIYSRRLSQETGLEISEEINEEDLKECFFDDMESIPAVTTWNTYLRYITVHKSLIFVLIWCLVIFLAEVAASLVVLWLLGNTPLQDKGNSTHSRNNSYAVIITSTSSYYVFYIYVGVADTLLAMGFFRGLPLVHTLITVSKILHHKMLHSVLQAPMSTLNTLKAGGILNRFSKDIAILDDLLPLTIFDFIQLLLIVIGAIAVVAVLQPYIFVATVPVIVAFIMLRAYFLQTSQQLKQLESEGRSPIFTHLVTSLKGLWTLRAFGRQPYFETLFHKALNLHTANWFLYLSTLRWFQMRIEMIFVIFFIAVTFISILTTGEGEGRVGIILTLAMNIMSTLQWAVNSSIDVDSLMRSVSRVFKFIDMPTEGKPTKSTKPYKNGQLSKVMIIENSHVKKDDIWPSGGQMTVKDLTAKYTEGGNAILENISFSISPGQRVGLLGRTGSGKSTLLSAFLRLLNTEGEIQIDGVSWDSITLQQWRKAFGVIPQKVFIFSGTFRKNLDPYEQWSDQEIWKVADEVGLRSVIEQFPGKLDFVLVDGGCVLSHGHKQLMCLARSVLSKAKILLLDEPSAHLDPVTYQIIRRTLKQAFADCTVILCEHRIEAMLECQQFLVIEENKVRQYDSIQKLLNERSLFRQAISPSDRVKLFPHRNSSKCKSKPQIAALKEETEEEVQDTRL
Method: Base medium (ADF+++) consisted of Advanced DMEM/Ham's F12, 2 mM Glutamax, 10 mM HEPES, […] penicillin/streptomycin.
Intestinal enteroid maintenance medium (IEMM) consisted of ADF+++, 1×B27 supplement, 1×N2 supplement, 1.25 mM N-acetyl cysteine, 10 mM Nicotinamide, 50 ng/mL hEGF, 10 nM Gastrin, 1 μg/mL hR-spondin-1, 100 ng/mL hNoggin, TGF-b type 1 inhibitor A-83-01, 100 μg/mL Primocin, 10 μM P38 MAPK inhibitor SB202190.
Bath 1 Buffer consisted of 1 mM MgCl2, 160 mM NaCl, 4.5 mM KCl, 10 mM HEPES, 10 mM Glucose, 2 mM CaCl2).
Chloride Free Buffer consisted of 1 mM Magnesium Gluconate, 2 mM Calcium Gluconate, 4.5 mM Potassium Gluconate, 160 mM Sodium Gluconate, 10 mM HEPES, 10 mM Glucose.
Bath1 Dye Solution consisted of Bath 1 Buffer, 0.04% Pluronic F127, 20 μM Methyl Oxonol, 30 μM CaCCinh-A01, 30 μM Chicago Sky Blue.
Chloride Free Dye Solution consisted of Chloride Free Buffer, 0.04% Pluronic F127, 20 μM Methyl Oxonol, 30 μM CaCCinh-A01, 30 μM Chicago Sky Blue.
Chloride Free Dye Stimulation Solution consisted of Chloride Free Dye Solution, 10 μM forskolin, 100 μM IBMX, and 300 nM Compound III.
Human intestinal epithelial enteroid cells were obtained from the Hubrecht Institute for Developmental Biology and Stem Cell Research, Utrecht, The Netherlands and expanded in T-Flasks as previously described (Dekkers J F, Wiegerinck C L, de Jonge H R, Bronsveld I, Janssens H M, de Winter-de Groot K M, Brandsma A M, de Jong N W M, Bijvelds M J C, Scholte B J, Nieuwenhuis E E S, van den Brink S, Clevers H, van der Ent C K, Middendorp S and M Beekman J M. A functional CFTR assay using primary cystic fibrosis intestinal organoids. Nat Med. 2013 July; 19(7):939-45).
3. Enteroid Cell Harvesting and Seeding […]
Enteroid cells were incubated with test compound in IEMM for 18-24 hours at 37° C., 95% humidity and 5% CO2. […] Chloride transport was initiated by addition of Chloride Free Dye Stimulation Solution and the fluorescence signal was read for 15 min. […] Chloride transport was then expressed as a percentage of the chloride transport following treatment with 3 μM (S)—N-((6-aminopyridin-2-yl)sulfonyl)-6-(3-fluoro-5-isobutoxyphenyl)-2-(2,2,4-trimethylpyrrolidin-1-yl)nicotinamide, 3 μM (R)-1-(2,2-difluorobenzo[d][1,3]dioxol-5-yl)-N-(1-(2,3-dihydroxypropyl)-6-fluoro-2-(1-hydroxy-2-methylpropan-2-yl)-1H-indol-5-yl)cyclopropanecarboxamide and 300 nM acute N-[2,4-bis(1,1-dimethylethyl)-5-hydroxyphenyl]-1,4-dihydro-4-oxoquinoline-3-carboxamide triple combination control (% Activity). […]
Enteroid cells were incubated with test compound in IEMM for 18-24 hours at 37° C., 95% humidity and 5% CO2. […] Chloride transport was initiated by addition of Chloride Free Dye Stimulation Solution and the fluorescence signal was read for 15 min. […]

CFTR = CFTR (Homo sapiens, UniProt P13569); assay: standard Ussing Chamber Assay for CFTR potentiator activity; assay type: cell-based
CFTR, sequence (P13569 whole entry): as above

F508del in NIH 3T3 cells = biological target: T1, F508del in NIH 3T3 cells (Homo sapiens, UniProt P13569, DEL508-508); assay: 3T3 assay: membrane potential optical assay for F508del correction; assay type: cell-based, mouse; conditions: F508del NIH 3T3 cells; for EC50: incubated with compound 18-24 hours at 37° C., forskolin activation; for Emax: NIH3T3, efficacy compared to lumacaftor in combination with acutely added 300 nM Ivacaftor, read-out: 3T3 Max Activity (%)
T1 construct: expressed in transfected cells
T1 sequence (P13569 with tags, fused parts or gaps DEL508-508): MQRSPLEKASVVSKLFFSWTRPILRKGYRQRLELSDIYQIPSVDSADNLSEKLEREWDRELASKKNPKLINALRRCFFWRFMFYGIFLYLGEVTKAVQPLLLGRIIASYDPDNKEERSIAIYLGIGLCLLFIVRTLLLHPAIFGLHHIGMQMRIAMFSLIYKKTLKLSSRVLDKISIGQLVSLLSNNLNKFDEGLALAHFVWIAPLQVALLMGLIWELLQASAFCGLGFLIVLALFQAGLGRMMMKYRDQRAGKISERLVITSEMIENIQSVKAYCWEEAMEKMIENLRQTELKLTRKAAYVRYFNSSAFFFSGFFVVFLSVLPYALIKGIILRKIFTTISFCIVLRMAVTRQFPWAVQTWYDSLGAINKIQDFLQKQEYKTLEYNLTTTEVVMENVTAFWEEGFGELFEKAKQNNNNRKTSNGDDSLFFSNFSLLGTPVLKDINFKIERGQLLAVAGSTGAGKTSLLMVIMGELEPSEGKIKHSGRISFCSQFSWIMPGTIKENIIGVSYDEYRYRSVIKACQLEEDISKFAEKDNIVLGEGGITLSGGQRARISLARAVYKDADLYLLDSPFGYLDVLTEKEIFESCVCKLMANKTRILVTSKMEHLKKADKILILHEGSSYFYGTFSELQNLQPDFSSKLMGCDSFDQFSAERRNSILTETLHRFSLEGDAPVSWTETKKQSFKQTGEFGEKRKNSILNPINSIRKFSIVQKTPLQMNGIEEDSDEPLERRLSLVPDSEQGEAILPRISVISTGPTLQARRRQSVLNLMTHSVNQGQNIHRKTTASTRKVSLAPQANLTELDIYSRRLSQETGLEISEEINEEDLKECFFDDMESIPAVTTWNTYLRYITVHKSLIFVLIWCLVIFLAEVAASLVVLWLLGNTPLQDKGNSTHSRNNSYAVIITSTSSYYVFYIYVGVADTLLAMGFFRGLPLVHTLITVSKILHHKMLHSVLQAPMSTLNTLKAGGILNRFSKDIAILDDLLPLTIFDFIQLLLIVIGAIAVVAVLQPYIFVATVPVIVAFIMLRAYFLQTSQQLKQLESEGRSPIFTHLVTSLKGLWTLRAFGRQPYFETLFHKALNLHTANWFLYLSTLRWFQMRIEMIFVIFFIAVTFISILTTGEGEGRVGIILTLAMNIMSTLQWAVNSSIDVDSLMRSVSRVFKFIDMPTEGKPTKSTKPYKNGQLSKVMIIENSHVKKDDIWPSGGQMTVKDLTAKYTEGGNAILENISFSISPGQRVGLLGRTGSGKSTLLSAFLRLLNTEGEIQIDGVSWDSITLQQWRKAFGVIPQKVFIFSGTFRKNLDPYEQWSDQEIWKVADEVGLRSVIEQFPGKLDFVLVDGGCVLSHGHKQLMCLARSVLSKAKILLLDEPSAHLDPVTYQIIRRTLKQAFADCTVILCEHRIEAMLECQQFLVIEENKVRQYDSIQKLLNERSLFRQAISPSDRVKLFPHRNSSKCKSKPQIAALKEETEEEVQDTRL
Description: Membrane Potential Optical Methods for Assaying F508del Modulation Properties of Compounds The assay utilizes fluorescent voltage sensing dyes to measure changes in membrane potential using a fluorescent plate reader (e.g., FLIPR III, Molecular Devices, Inc.) as a readout for increase in functional F508del in NIH 3T3 cells. The driving force for the response is the creation of a chloride ion gradient in conjunction with channel activation by a single liquid addition step after the cells have previously been treated with compounds and subsequently loaded with a voltage sensing dye. 2. Identification of Corrector Compounds To identify correctors of F508del, a single-addition HTS assay format was developed. This HTS assay utilizes fluorescent voltage sensing dyes to measure changes in membrane potential on the FLIPR III as a measurement for increase in gating (conductance) of F508del in F508del NIH 3T3 cells. The F508del NIH 3T3 cell cultures were incubated with the corrector compounds at a range of concentrations for 18-24 hours at 37° C., and subsequently loaded with a redistribution dye. The driving force for the response is a Cl^− ion gradient in conjunction with channel activation with forskolin in a single liquid addition step using a fluorescent plate reader such as FLIPR III. […] Solutions […] Chloride-free bath solution: Chloride salts in Bath Solution #1 (above) are substituted with gluconate salts. 4. Cell Culture NIH3T3 mouse fibroblasts stably expressing F508del are used for optical measurements of membrane potential. The cells are maintained at 37° C. in 5% CO2 and 90% humidity in Dulbecco's modified Eagle's medium supplemented with 2 mM glutamine, 10% fetal bovine serum, 1×NEAA, b-ME, 1×pen/strep, and 25 mM HEPES in 175 cm^2 culture flasks. For all optical assays, the cells were seeded at ˜20,000/well in 384-well Matrigel-coated plates. For the correction assays, the cells are cultured at 37° C. with and without compounds for 16-24 hours.

EC50 (F508del in NIH 3T3 cells) | Emax (F508del in NIH 3T3 cells) | SMILES | further results
< 1 µM | 30 to 60% | Cc1ccc(-n2nc(NS(=O)(=O)c3ccccc3)c3ccc(C(C)(C)C)nc32)cc1 [Compound 44] | 
 | < 30% | Cn1c(NS(=O)(=O)c2ccccc2)nc2ccccc21 [Compound 86] | 
 | < 30% | Cc1cc(C)c(-n2nc(NS(=O)(=O)c3cccc(Cl)c3)c3ccc(C(C)(C)C)nc32)c(C)c1 [Compound 62] | 
1 to 3 µM | 30 to 60% | Cc1ccccc1-n1nc(NS(=O)(=O)c2ccccc2)c2ccc(Br)cc21 [Compound 70, N-[6-bromo-1-(o-tolyl)indazol-3-yl]benzenesulfonamide] | 
< 1 µM | 30 to 60% | COc1cccc(S(=O)(=O)Nc2nn(-c3c(C)cc(C)cc3C)c3nc(C(C)(C)C)ccc23)c1 [Compound 60] | 
 | < 30% | CC(C)(C)c1ccc2c(NS(=O)(=O)c3ccccc3)cn(-c3cccc(Cl)c3)c2n1 [Compound 87] | 
1 to 3 µM | 30 to 60% | COc1ccccc1S(=O)(=O)Nc1nn(-c2c(C)cc(C)cc2C)c2nc(C(C)(C)C)ccc12 [Compound 59] | 
 | < 30% | Cc1cc(NS(=O)(=O)c2ccccc2)nc2ccccc12 [Compound 81] | 
 | < 30% | Cc1ccc(S(=O)(=O)Nc2nn(-c3c(C)cc(C)cc3C)c3nc(C(C)(C)C)ccc23)cc1 [Compound 66] | 
1 to 3 µM | 30 to 60% | COc1ccccc1-n1nc(NS(=O)(=O)c2ccccc2)c2ccc(C(C)(C)C)nc21 [Compound 51] | 
 | < 30% | Cc1cc(C)cc(-c2cc(NS(=O)(=O)c3ccccc3)nc3ccccc23)c1 [Compound 78, N-[4-(3,5-Dimethylphenyl)-2-quinolyl]benzenesulfonamide] | 
 | < 30% | Cc1cccc(S(=O)(=O)Nc2nn(-c3c(C)cc(C)cc3C)c3nc(C(C)(C)C)ccc23)c1 [Compound 63] | 

More lines, now with the values behind:

SMILES | EC50 (F508del in NIH 3T3 cells) | Emax (F508del in NIH 3T3 cells) | further results
Cc1ccccc1-c1nc(NS(=O)(=O)c2cnn(C)c2)cc2oc3ccccc3c12 [Compound 79, 1-Methyl-N-[1-(o-tolyl)benzofuro[3,2-c]pyridin-3-yl]pyrazole-4-sulfonamide] |  |  | Ent. Max Activity (%) [1]: ++ (++ is 30-60%); EC50 ([1]; enteroid cells, 18-24 hours incubation, acute 10 μM forskolin and 300 nM ivacaftor, read-out: Ent. EC50): 3 to 30 µM
Cc1ccccc1-c1cc2oc3ccccc3c2c(NS(=O)(=O)c2cnn(C)c2)n1 [Compound 80] |  |  | Ent. Max Activity (%) [1]: + (+ is <300%)
C[C@@H]1CCCCC[C@](O)(C(F)(F)F)C2=NN=C(O2)c2nc(c(C(F)(F)F)cc2N)O1 [(6R,12R)-17-Amino-12-methyl-6,15-bis(trifluoromethyl)-13,19-dioxa-3,4,18-triazatricyclo[12.3.1.12,5]nonadeca-1(18),2,4,14,16-pentaen-6-ol] |  |  | CFTR modulating activity (CFTR potentiator activity) (CFTR): confirmed
Cc1ccc(-c2nc(NS(=O)(=O)c3ccccc3)c3ccc(C(C)(C)C)nc3n2)c(C)c1 [Compound 18] |  | < 30% | 
O=S(=O)(Nc1nc2c(s1)CCc1ccccc1-2)c1ccccc1 [Compound 26] | 1 to 3 µM | 30 to 60% | 
Nc1cccc(S(=O)(=O)Nc2nc(-c3ccccc3)c3ccn(-c4ccccc4)c3n2)c1 [Compound 32, 3-Amino-N-(4,7-diphenylpyrrolo[2,3-d]pyrimidin-2-yl)benzenesulfonamide] | < 1 µM |  | 
Cc1cc(C)c(-n2nc(NS(=O)(=O)c3ccccc3)c3ccc(C(C)(C)C)nc32)c(C)c1 [Compound 33, N-[6-tert-butyl-1-(2,4,6-trimethylphenyl)pyrazolo[3,4-b]pyridin-3-yl]benzenesulfonamide] | < 1 µM |  | Ent. Max Activity (%) [1]: + (+ is <300%)
Cc1ccccc1Oc1nc(NS(=O)(=O)c2cnn(C)c2)nc2c1CCC(C)(C)C2 [Compound 2, N-[7,7-Dimethyl-4-(2-methylphenoxy)-6,8-dihydro-5H-quinazolin-2-yl]-1-methyl-pyrazole-4-sulfonamide] | 1 to 3 µM | > 60% | 
CC1CCc2nc(NS(=O)(=O)c3ccccc3)sc2C1 (centres unmarked) [Compound 24] |  | < 30% | 
O=S(=O)(Nc1nc2c(c(Oc3ccccc3)n1)CCCC2)c1ccccc1 [Compound 4, N-(4-phenoxy-5,6,7,8-tetrahydroquinazolin-2-yl)benzenesulfonamide] | 3 to 30 µM | > 60% | 
Cc1cc(C)cc(-c2nc(NS(=O)(=O)c3ccccc3)nc3ccccc23)c1 [Compound 28, N-[4-(3,5-Dimethylphenyl)quinazolin-2-yl]benzenesulfonamide] | 1 to 3 µM |  | 
O=S(=O)(Nc1nc2c(s1)Cc1ccccc1-2)c1ccccc1 [Compound 27] | 3 to 30 µM | 30 to 60% | 
Cc1cc(C)cc(-c2nc(NS(=O)(=O)c3ccccc3)nc3nc(C(C)(C)C)ccc23)c1 [Compound 30, N-[7-tert-butyl-4-(3,5-dimethylphenyl)pyrido[2,3-d]pyrimidin-2-yl]benzenesulfonamide] | < 1 µM |  | 
Cc1ccccc1Oc1nc(NS(=O)(=O)c2cnn(C)c2)nc2c1CCCC2(C)C [Compound 5, N-[8,8-Dimethyl-4-(2-methylphenoxy)-6,7-dihydro-5H-quinazolin-2-yl]-1-methyl-pyrazole-4-sulfonamide] | 3 to 30 µM | 30 to 60% | 
